Results taken from US20180249707A1, “METHOD OF CONTROLLING ALGAE IN A BODY OF WATER” (priority 2013, published 2018).

How the values were obtained:
Microcystis aeruginosa = assay: 14-day flask exposure of Microcystis aeruginosa to BADA; format: cell-based; conditions: at concentrations comparable to Cutrine-Plus
Description: (§1) The experiment was conducted for 14 days and was initiated using 100 mL BG-11 medium contained in 200 mL flasks. […] The experiment was initiated by exposing the algae to 0.2, 0.4, 0.8, 1.0, 1.2, 1.4, 1.8, and 2.0 ppm (mg/L) as BADA, 0.5 Cu/L Cutrine®-Plus. The solution was heated in a water bath and diluted to 70 mg/L using warmed deionized water. Cutrine®-Plus stock solution was made at 50 mg/L using deionized water. Three replicates of each exposure concentration, along with three replicates of an untreated reference were tested. Each sample was maintained at room temperature with 12-hours of light and 12-h dark photoperiod. The chlorophyll a concentrations of Microcystis aeruginosa through the 14 day exposure after exposure to concentrations of BADA and Cutrine®-Plus. The results are shown in TABLES 5, and 6, which show the chlorophyll a concentration and the cell density, respectively.

Cladophora sp. = assay: 14-day flask exposure of Cladophora sp. to BADA; format: cell-based, C. kosterae
Description: The experiment was conducted for 14 days and was initiated using 100 mL BG-11 medium contained in 200 mL flasks. […] The solution was heated in a water bath and diluted to 70 mg/L using warmed deionized water. The concentration of DMSO was approximately 350 mg/L in the test beakers. Cutrine®-Plus stock solution was made at 50 mg/L using deionized water. Three replicates of each exposure concentration, along with three replicates of an untreated reference were tested. Each sample was maintained at room temperature with 12-hours of light and 12-h dark photoperiod. […]

M. aeruginosa = assay: Repeat exposure of M. aeruginosa to BADA at 25-200 ppb; format: cell-based
Description: as §1
Example 5 was repeated but using the N,N-bis-(3-aminopropyl) dodecylamine in the amounts of 200 parts per billion ((ppb) 0.2 ppm), 100 parts per billion ((ppb) 0.1 ppm), 75 parts per billion ((ppb) 0.075 ppm), 50 parts per billion ((ppb) 0.05 ppm), and 25 parts per billion ((ppb) 0.025 ppm). A control example was also repeated since the M. aeruginosa was from a different culture and the test were conducted at different times. The results are shown in TABLES 8, and 9, which show the chlorophyll a concentration and the cell density, respectively.

Q: How did the “effectiveness as an algaecide on Microcystis aeruginosa” value (Microcystis aeruginosa) turn out when `CCCCCCCCCCCCN(CCCN)CCCN` [BADA, N,N-bis-(3-aminopropyl) dodecylamine] was run?
A: Its value is “effective”.

Q: And the “Extracted chlorphylll a concentrations of C. kosterae cultures” value (shortened to “Extracted chlorphylll a concentrations”) (Cladophora sp.; BADA 0.2 ppm, day 0 (initial))?
A: The value was 14.21 μg/sample.

Q: And the “Extracted chlorphylll a concentrations” value (Cladophora sp.; BADA 0.2 ppm, day 14)?
A: Its value is 11.01 μg/sample.

Q: And the “Extracted chlorphylll a concentrations” value (Cladophora sp.; BADA 0.4 ppm, day 0 (initial))?
A: Its value is 14.21 μg/sample.

Q: And the “Extracted chlorphylll a concentrations” value (Cladophora sp.; BADA 0.4 ppm, day 14)?
A: Its value is 13.15 μg/sample.

Q: What about the “Extracted chlorphylll a concentrations” value (Cladophora sp.; BADA 0.8 ppm, day 0 (initial)) of the same compound?
A: The value was 14.21 μg/sample.

Q: What about the “Extracted chlorphylll a concentrations” value (Cladophora sp.; BADA 0.8 ppm, day 14) of the same compound?
A: The value was 12.54 μg/sample.

Q: What about the “Extracted chlorphylll a concentrations” value (Cladophora sp.; BADA 1.0 ppm, day 0 (initial)) of the same compound?
A: The value was 14.21 μg/sample.

Q: What about the “Extracted chlorphylll a concentrations” value (Cladophora sp.; BADA 1.0 ppm, day 14) of the same compound?
A: Its value is 13.26 μg/sample.

Q: And the “Extracted chlorphylll a concentrations” value (Cladophora sp.; BADA 1.2 ppm, day 0 (initial))?
A: The value was 14.21 μg/sample.

Q: What about the “Extracted chlorphylll a concentrations” value (Cladophora sp.; BADA 1.2 ppm, day 14) of the same compound?
A: The value was 11.15 μg/sample.

Q: And the “Extracted chlorphylll a concentrations” value (Cladophora sp.; BADA 1.4 ppm, day 0 (initial))?
A: The value was 14.21 μg/sample.

Q: And the “Extracted chlorphylll a concentrations” value (Cladophora sp.; BADA 1.4 ppm, day 14)?
A: Its value is 8.63 μg/sample.

Q: What about the “Extracted chlorphylll a concentrations” value (Cladophora sp.; BADA 1.8 ppm, day 0 (initial)) of the same compound?
A: The value was 14.21 μg/sample.

Q: What about the “Extracted chlorphylll a concentrations” value (Cladophora sp.; BADA 1.8 ppm, day 14) of the same compound?
A: The value was 8.70 μg/sample.

Q: What about the “Extracted chlorphylll a concentrations” value (Cladophora sp.; BADA 2.0 ppm, day 0 (initial)) of the same compound?
A: The value was 14.21 μg/sample.

Q: What about the “Extracted chlorphylll a concentrations” value (Cladophora sp.; BADA 2.0 ppm, day 14) of the same compound?
A: Its value is 8.32 μg/sample.

Q: And the “effectiveness as an algaecide on Cladophora sp.” value (Cladophora sp.; at concentrations comparable to Cutrine-Plus)?
A: Its value is “effective”.

Q: What about the “Cell density of M. aeruginosa cultures” value (M. aeruginosa; BADA 25 ppb, day 0 (initial)) of the same compound?
A: Its value is 3.8E+05 cells/mL.

Q: And the “In vivo chlorophyll a concentrations of M. aeruginosa cultures” value (shortened to “In vivo chlorophyll a concentrations”) (M. aeruginosa; BADA 25 ppb, day 0 (initial))?
A: The value was 1.20 µg/L.

Q: What about the “In vivo chlorophyll a concentrations” value (M. aeruginosa; BADA 25 ppb, day 1) of the same compound?
A: The value was 0.67 µg/L.

Q: And the “In vivo chlorophyll a concentrations” value (M. aeruginosa; BADA 25 ppb, day 5)?
A: The value was 0.64 µg/L.

Q: What about the “In vivo chlorophyll a concentrations” value (M. aeruginosa; BADA 25 ppb, day 7) of the same compound?
A: Its value is 1.58 µg/L.

Q: And the “In vivo chlorophyll a concentrations” value (M. aeruginosa; BADA 25 ppb, day 12)?
A: The value was 7.91 µg/L.

Q: What about the “Cell density of M. aeruginosa cultures” value (M. aeruginosa; BADA 25 ppb, day 14) of the same compound?
A: Its value is 7.3E+06 cells/mL.

Q: What about the “In vivo chlorophyll a concentrations” value (M. aeruginosa; BADA 25 ppb, day 14) of the same compound?
A: The value was 10.06 µg/L.

Q: And the “Cell density of M. aeruginosa cultures” value (M. aeruginosa; BADA 50 ppb, day 0 (initial))?
A: The value was 3.8E+05 cells/mL.

Q: What about the “In vivo chlorophyll a concentrations” value (M. aeruginosa; BADA 50 ppb, day 0 (initial)) of the same compound?
A: The value was 1.20 µg/L.

Q: What about the “In vivo chlorophyll a concentrations” value (M. aeruginosa; BADA 50 ppb, day 1) of the same compound?
A: The value was 0.48 µg/L.

Q: And the “In vivo chlorophyll a concentrations” value (M. aeruginosa; BADA 50 ppb, day 5)?
A: The value was 0.04 µg/L.

Q: And the “In vivo chlorophyll a concentrations” value (M. aeruginosa; BADA 50 ppb, day 7)?
A: The value was 0.06 µg/L.

Q: What about the “In vivo chlorophyll a concentrations” value (M. aeruginosa; BADA 50 ppb, day 12) of the same compound?
A: Its value is 0.71 µg/L.

Q: What about the “Cell density of M. aeruginosa cultures” value (M. aeruginosa; BADA 50 ppb, day 14) of the same compound?
A: Its value is 1.5E+06 cells/mL.

Q: And the “In vivo chlorophyll a concentrations” value (M. aeruginosa; BADA 50 ppb, day 14)?
A: Its value is 1.93 µg/L.

Q: What about the “Cell density of M. aeruginosa cultures” value (M. aeruginosa; BADA 75 ppb, day 0 (initial)) of the same compound?
A: The value was 3.8E+05 cells/mL.

Q: What about the “In vivo chlorophyll a concentrations” value (M. aeruginosa; BADA 75 ppb, day 0 (initial)) of the same compound?
A: Its value is 1.20 µg/L.

Q: What about the “In vivo chlorophyll a concentrations” value (M. aeruginosa; BADA 75 ppb, day 1) of the same compound?
A: The value was 0.50 µg/L.

Q: And the “In vivo chlorophyll a concentrations” value (M. aeruginosa; BADA 75 ppb, day 5)?
A: The value was 0.05 µg/L.

Q: And the “In vivo chlorophyll a concentrations” value (M. aeruginosa; BADA 75 ppb, day 7)?
A: Its value is 0.05 µg/L.

Q: What about the “In vivo chlorophyll a concentrations” value (M. aeruginosa; BADA 75 ppb, day 12) of the same compound?
A: The value was 0.60 µg/L.

Q: What about the “Cell density of M. aeruginosa cultures” value (M. aeruginosa; BADA 75 ppb, day 14) of the same compound?
A: Its value is 1.4E+06 cells/mL.

Q: And the “In vivo chlorophyll a concentrations” value (M. aeruginosa; BADA 75 ppb, day 14)?
A: Its value is 1.77 µg/L.

Q: And the “Cell density of M. aeruginosa cultures” value (M. aeruginosa; BADA 100 ppb, day 0 (initial))?
A: The value was 3.8E+05 cells/mL.

Q: And the “In vivo chlorophyll a concentrations” value (M. aeruginosa; BADA 100 ppb, day 0 (initial))?
A: Its value is 1.20 µg/L.

Q: What about the “In vivo chlorophyll a concentrations” value (M. aeruginosa; BADA 100 ppb, day 1) of the same compound?
A: The value was 0.55 µg/L.

Q: What about the “In vivo chlorophyll a concentrations” value (M. aeruginosa; BADA 100 ppb, day 5) of the same compound?
A: The value was 0.03 µg/L.

Q: What about the “In vivo chlorophyll a concentrations” value (M. aeruginosa; BADA 100 ppb, day 7) of the same compound?
A: Its value is 0.03 µg/L.

Q: And the “In vivo chlorophyll a concentrations” value (M. aeruginosa; BADA 100 ppb, day 12)?
A: Its value is 0.31 µg/L.

Q: And the “Cell density of M. aeruginosa cultures” value (M. aeruginosa; BADA 100 ppb, day 14)?
A: The value was 8.7E+05 cells/mL.

Q: What about the “In vivo chlorophyll a concentrations” value (M. aeruginosa; BADA 100 ppb, day 14) of the same compound?
A: The value was 0.98 µg/L.

Q: What about the “Cell density of M. aeruginosa cultures” value (M. aeruginosa; BADA 200 ppb, day 0 (initial)) of the same compound?
A: Its value is 3.8E+05 cells/mL.

Q: What about the “In vivo chlorophyll a concentrations” value (M. aeruginosa; BADA 200 ppb, day 0 (initial)) of the same compound?
A: The value was 1.20 µg/L.

Q: What about the “In vivo chlorophyll a concentrations” value (M. aeruginosa; BADA 200 ppb, day 1) of the same compound?
A: Its value is 0.50 µg/L.

Q: What about the “In vivo chlorophyll a concentrations” value (M. aeruginosa; BADA 200 ppb, day 5) of the same compound?
A: Its value is 0.03 µg/L.

Q: And the “In vivo chlorophyll a concentrations” value (M. aeruginosa; BADA 200 ppb, day 7)?
A: Its value is 0.02 µg/L.

Q: What about the “In vivo chlorophyll a concentrations” value (M. aeruginosa; BADA 200 ppb, day 12) of the same compound?
A: Its value is 0.05 µg/L.

Q: What about the “Cell density of M. aeruginosa cultures” value (M. aeruginosa; BADA 200 ppb, day 14) of the same compound?
A: Its value is 1.4E+05 cells/mL.

Q: And the “In vivo chlorophyll a concentrations” value (M. aeruginosa; BADA 200 ppb, day 14)?
A: Its value is 0.16 µg/L.
